The source made the active and inactive calls. Cut-off read from the data, not from the text of the source: actives have a measured IC50 and inactives only a lower limit.

The assay deals with Envelope glycoprotein gp160 (Human immunodeficiency virus 1, UniProt Q6QLK5). The assay is described as follows: inhibitors of HIV fusion peptide binding, primary screen, biochemical, uHTS, fluorescence dequenching (AID 1986).
Chain of Envelope glycoprotein gp160 (Q6QLK5 whole entry, the tested form may be a part): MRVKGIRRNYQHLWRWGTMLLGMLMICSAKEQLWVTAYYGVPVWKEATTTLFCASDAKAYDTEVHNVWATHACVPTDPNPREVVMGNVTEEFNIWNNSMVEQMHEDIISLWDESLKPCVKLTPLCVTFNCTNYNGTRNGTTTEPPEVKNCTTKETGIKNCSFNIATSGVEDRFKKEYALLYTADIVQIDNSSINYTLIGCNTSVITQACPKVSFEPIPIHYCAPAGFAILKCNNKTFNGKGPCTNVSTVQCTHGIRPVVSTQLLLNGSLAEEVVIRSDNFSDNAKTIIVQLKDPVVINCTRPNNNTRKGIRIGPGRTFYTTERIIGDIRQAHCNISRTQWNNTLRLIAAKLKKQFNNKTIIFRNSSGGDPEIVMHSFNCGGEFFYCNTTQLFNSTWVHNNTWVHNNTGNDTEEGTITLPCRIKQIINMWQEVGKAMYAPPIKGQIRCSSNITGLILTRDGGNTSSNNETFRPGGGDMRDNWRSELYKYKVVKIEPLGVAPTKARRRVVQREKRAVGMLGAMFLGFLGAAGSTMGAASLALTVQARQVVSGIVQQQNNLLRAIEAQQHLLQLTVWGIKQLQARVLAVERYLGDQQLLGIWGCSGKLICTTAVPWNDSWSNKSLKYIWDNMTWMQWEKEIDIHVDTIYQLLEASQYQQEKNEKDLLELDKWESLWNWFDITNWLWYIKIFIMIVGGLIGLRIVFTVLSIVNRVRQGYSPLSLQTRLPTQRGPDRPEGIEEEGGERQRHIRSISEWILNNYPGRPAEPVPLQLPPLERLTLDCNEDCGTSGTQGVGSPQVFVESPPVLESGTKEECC

Turning to `O=C(CN1C(=O)/C(=C2\SC(=S)N(CCS(=O)(=O)O)C2=O)c2ccccc21)Nc1cccc(Br)c1`, the half-maximal inhibitory concentration (IC50) (in general, the concentration that inhibits the measured activity by half) was 9.81 µM (active).

For the origin of these results see ChEMBL document CHEMBL1201862, “PubChem BioAssay data set” (2004).
